Experimental data from patent publication US20240189330A1, “Compositions and Methods for Inhibiting and Treating Viral Infections” (The Regents of the University of California, priority 2021, published 2024).
“Also recorded” adds a separate entry of the source. Where a name gives a salt, the structure may show the parent alone.

Experiments:
[1] = tested on: Influenza A Virus, subtype H1N1; assay type: cell-based
[2] = tested on: Human rhinovirus type 16 (HRV16); assay type: cell-based
[3] = tested on: human mammalian cells; settings: cited from earlier work

What does the source list for `COC(=O)/C=C/C(=O)OC` [DMF, dimethyl fumarate]?
H1N1 viral replication by qPCR [1]: inhibit H1N1 replication; also recorded: inhibit the replication; HRV16 viral replication by qPCR [2]: minimally inhibit HRV16 replication; also recorded: little antiviral activity

Which “concentration physiologically relevant, efficacious and non-cytotoxic” value [3] does the source give for `COC1=C(OC)C(=O)C(CCCCCCCCCC[P+](c2ccccc2)(c2ccccc2)c2ccccc2)=C(C)C1=O` [Mito-MES, 10-(4,5-dimethoxy-2-methyl-3,6-dioxo-1,4-cyclohexadienyl) decyl triphenylphosphonium] here?
The value was < 2000 nM.
